Measurements as given in PubChem BioAssay AID588412 (NMMLSC, 2011).
Activity calls are given as the source filed them.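 Rule for the calls: active = fitted EC50 below about 63 µM, meaning a log molar EC50 under -4.2; inactive = the rest.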

Target: Integrin alpha-4 (Homo sapiens) (UniProt P13612)
Experiment: displacement of fluorescent LDV from VLA-4 – U937 cells, flow cytometry, set 1, orthogonal assay, dose response (AID 588412)
Settings: LDV-FITC competition, flow cytometry MCF

Sequence of Integrin alpha-4 (Homo sapiens) (P13612 whole entry, looked up): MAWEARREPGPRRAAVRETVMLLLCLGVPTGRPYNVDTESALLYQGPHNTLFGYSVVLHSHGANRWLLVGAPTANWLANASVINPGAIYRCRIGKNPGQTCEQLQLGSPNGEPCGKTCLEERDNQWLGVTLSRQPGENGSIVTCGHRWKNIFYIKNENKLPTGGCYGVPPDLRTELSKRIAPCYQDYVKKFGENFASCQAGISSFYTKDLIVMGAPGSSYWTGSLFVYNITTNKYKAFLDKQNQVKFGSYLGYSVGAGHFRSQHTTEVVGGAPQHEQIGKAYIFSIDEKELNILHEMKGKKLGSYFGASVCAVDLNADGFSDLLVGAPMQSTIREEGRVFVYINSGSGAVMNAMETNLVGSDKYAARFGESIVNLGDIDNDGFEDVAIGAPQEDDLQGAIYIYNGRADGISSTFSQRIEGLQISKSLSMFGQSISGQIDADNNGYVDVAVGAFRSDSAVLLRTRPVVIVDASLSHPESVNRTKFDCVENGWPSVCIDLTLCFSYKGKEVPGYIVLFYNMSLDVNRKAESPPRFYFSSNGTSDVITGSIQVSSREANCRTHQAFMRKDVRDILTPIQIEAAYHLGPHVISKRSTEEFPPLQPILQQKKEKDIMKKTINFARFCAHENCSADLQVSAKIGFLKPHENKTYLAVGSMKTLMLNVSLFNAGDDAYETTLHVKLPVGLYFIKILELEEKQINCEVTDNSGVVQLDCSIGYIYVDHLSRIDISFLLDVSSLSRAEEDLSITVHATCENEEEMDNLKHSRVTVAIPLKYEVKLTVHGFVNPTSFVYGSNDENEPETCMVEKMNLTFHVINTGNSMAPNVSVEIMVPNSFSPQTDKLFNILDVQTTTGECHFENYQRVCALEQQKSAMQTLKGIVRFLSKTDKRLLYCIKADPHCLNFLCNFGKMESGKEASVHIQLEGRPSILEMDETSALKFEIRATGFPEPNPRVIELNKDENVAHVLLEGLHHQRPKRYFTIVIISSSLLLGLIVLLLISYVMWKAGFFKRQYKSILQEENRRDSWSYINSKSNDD

SMILES	EC50
c1ccc2c(-c3ccc(OCCN4CCCCC4)cc3)c(-c3ccsc3)sc2c1	inactive
c1ccc2c(-c3ccc(OCCN4CCCC4)cc3)c(-c3ccsc3)sc2c1	21 µM
COc1ccc(-c2sc3ccccc3c2-c2ccc(OCCN(C)C)cc2)cc1	16.3 µM
COc1cccc(-c2sc3ccccc3c2-c2ccc(OCCN3CCCC3)cc2)c1	24.6 µM
c1ccc(-c2sc3ccccc3c2-c2ccc(OCCN3CCCC3)cc2)cc1	28.2 µM

More lines, in order of falling EC50, values ahead:

EC50	SMILES
30.2 µM	CN(C)CCOc1ccc(-c2c(-c3ccccc3)sc3ccccc23)cc1
24.5 µM	COc1cccc(-c2sc3ccccc3c2-c2ccc(OCCN(C)C)cc2)c1
